Test results taken from PMC10218254 (International Journal of Molecular Sciences, 2023).
Where two headings read alike, the source gives them in different places.

Experiments:
SARS-CoV-2 PL^pro [1] = molecular target: T1, SARS-CoV-2 PL^pro (Severe acute respiratory syndrome coronavirus 2, UniProt P0DTD1); assay: biochemical; details: for IC50: 60 min incubation
SARS-CoV-2 PL^pro [2] = molecular target: T1, SARS-CoV-2 PL^pro; assay: biochemical; details: 50 nM protease; for Ki: read-out: Ki (binding affinity of initial reversible binding); for kinact: read-out: kinact (rate constant of covalent bond formation) (converted)
SARS-CoV PL^pro = SARS-CoV PL^pro (Severe acute respiratory syndrome coronavirus, UniProt P0C6X7); assay: biochemical
SARS-CoV-2 PL^pro [3] = molecular target: T1, SARS-CoV-2 PL^pro; assay: cell-based; details: HEK293T cells; for EC50: 48 h
HEK293T cells = assay: Cytotoxicity, cell counting kit-8 (CCK8) assay; details: HEK293T cells, 24 h
[4] = Cytotoxicity, cell counting kit-8 (CCK8) assay; details: human, CC50, HEK293T cells
SARS-CoV-2 PL^pro [5] = molecular target: T1, SARS-CoV-2 PL^pro; assay: biochemical; details: Ub-AMC substrate, 60 min incubation
MERS-CoV PL^pro = MERS-CoV PL^pro (Middle East respiratory syndrome-related coronavirus, UniProt K9N7C7); assay: biochemical
Chain of MERS-CoV PL^pro (K9N7C7 1552-1823 limits assumed): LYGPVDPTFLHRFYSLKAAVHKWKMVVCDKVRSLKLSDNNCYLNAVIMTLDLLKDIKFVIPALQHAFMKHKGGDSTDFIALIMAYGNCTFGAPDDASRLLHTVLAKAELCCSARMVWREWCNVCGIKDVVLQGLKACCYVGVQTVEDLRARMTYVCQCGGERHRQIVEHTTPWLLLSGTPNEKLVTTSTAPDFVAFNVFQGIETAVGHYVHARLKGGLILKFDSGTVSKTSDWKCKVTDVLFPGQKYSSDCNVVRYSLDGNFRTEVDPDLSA

SARS-CoV-2 PL^pro [6] = molecular target: T1, SARS-CoV-2 PL^pro; type: binding; details: 40 μM protease, 200 μM compound; for Tm of SARS-CoV-2 PLpro incubated with compound: apo protease 43.3 °C
SARS-CoV-2 PL^pro [7] = molecular target: T1, SARS-CoV-2 PL^pro; details: cited from earlier work

| Compound | IC50 (SARS-CoV-2 PL^pro [1]; RLRGG-AMC substrate) [µM] | kinact/KI (SARS-CoV-2 PL^pro [2]) [M⁻¹ s⁻¹] | Ki (SARS-CoV-2 PL^pro [2]) [µM] | kinact (SARS-CoV-2 PL^pro [2]) [s⁻¹] | EC50 (SARS-CoV-2 PL^pro [3]) [µM] | CC50 (HEK293T cells) [µM] | CC50 at 24 h [4] [µM] | IC50 (SARS-CoV-2 PL^pro [5]) [µM] | Tm of SARS-CoV-2 PLpro incubated with compound (SARS-CoV-2 PL^pro [6]) [°C] | other results |
| --- | --- | --- | --- | --- | --- | --- | --- | --- | --- | --- |
| COC(=O)/C=C/CNC(=O)CNC(=O)CNC(=O)C1CCN(C(C)c2cccc3ccccc23)CC1 (stereo not drawn) [compound 2, Methyl (E)-4-(2-(2-(1-(1-(Naphthalen-1-yl)ethyl)piperidine-4-carboxamido)acetamido)acetamido)but-2-enoate] | 0.46 | 160 | 5.32 | 0.00085 | 3.61 | ~180 | ~180 | 0.46 | 68.0 | change in inhibitory activities in the presence and absence of DTT (SARS-CoV-2 PL^pro [1]; 4 mM DTT, varied concentrations): no apparent change; improvement in potency (IC50) compared to VIR251 (SARS-CoV-2 PL^pro [1]; RLRGG-AMC substrate): about 100 fold; improvement in potency (IC50) compared to compound 1 (SARS-CoV-2 PL^pro [1]; RLRGG-AMC substrate): ~5 fold; increase in potency (IC50) compared to positive control GRL0617 (SARS-CoV-2 PL^pro [1]; RLRGG-AMC substrate): 2 fold; IC50 (SARS-CoV PL^pro): 0.39 µM; improvement in EC50 compared to GRL0617 (SARS-CoV-2 PL^pro [3]): ~ 4.4 fold; IC50 (MERS-CoV PL^pro): > 100 µM; inhibitory activity towards MERS-CoV PLpro (MERS-CoV PL^pro): basically ineffective |
| COC(=O)/C=C/CNC(=O)CNC(=O)[C@H](CN)NC(=O)[C@H](CCc1nc2ccccc2s1)NC(C)=O [VIR250] |  |  |  |  |  |  |  |  |  | IC50 (SARS-CoV-2 PL^pro [7]; read-out: IC50): ~50 µM |
| GRL0617 [reference compound] |  |  |  |  |  | > 200 |  |  | 50.4 |  |
| COC(=O)/C=C/C(=O)NNC(=O)CNC(=O)CNC(=O)C1CCN(C(C)c2cccc3ccccc23)CC1 (stereo not drawn) [compound 4, Methyl (E)-4-(2-((1-(1-(Naphthalen-1-yl)ethyl)piperidine-4-carbonyl)glycylglycyl)hydrazinyl)-4-oxobut-2-enoate] | 0.23 | 265 | 4.65 | 0.00123 | > 200 |  | > 200 | 0.32 |  | inhibitory potency higher than compound 2 (SARS-CoV-2 PL^pro [1]; enzymatic inhibition assay): ~ 1 fold; inhibitory effect in cell-based protease assay (SARS-CoV-2 PL^pro [3]): hardly has an inhibitory effect; Tm increase compared to apo protease (SARS-CoV-2 PL^pro [6]): 15.1 °C |
| COC(=O)/C=C/C(=O)NNC(=O)CCc1ccccc1C(=O)NC(C)c1cccc2ccccc12 (stereo not drawn) [compound 3, reference compound] |  |  |  |  |  | 58.3 | 58.3 ± 22.1 |  |  |  |
| COC(=O)/C=C/CNC(=O)CNC(=O)[C@H](CN)NC(=O)[C@H](CCc1ccc(O)cc1)NC(C)=O [VIR251] |  |  |  |  |  |  |  |  |  | IC50 (SARS-CoV-2 PL^pro [7]): ~50 µM |
